Calls of active or inactive are those of the source. Cut-off read from the data, not from the text of the source, for most assays here: actives have a measured EC50 and inactives only a lower limit.
What was measured:
Protein RecA = molecular target: T1, Protein RecA (Mycobacterium tuberculosis, UniProt P9WHJ3); assay: Fluorescence Cell-Free Homogeneous Dose Retest to Identify Inhibitors of RecA-Intein Splicing Activity. [Related pubchem assays (depositor defined):AID2097, AID2223, AID489010, AID492950]; assay type: functional
T1 sequence (P9WHJ3 whole entry): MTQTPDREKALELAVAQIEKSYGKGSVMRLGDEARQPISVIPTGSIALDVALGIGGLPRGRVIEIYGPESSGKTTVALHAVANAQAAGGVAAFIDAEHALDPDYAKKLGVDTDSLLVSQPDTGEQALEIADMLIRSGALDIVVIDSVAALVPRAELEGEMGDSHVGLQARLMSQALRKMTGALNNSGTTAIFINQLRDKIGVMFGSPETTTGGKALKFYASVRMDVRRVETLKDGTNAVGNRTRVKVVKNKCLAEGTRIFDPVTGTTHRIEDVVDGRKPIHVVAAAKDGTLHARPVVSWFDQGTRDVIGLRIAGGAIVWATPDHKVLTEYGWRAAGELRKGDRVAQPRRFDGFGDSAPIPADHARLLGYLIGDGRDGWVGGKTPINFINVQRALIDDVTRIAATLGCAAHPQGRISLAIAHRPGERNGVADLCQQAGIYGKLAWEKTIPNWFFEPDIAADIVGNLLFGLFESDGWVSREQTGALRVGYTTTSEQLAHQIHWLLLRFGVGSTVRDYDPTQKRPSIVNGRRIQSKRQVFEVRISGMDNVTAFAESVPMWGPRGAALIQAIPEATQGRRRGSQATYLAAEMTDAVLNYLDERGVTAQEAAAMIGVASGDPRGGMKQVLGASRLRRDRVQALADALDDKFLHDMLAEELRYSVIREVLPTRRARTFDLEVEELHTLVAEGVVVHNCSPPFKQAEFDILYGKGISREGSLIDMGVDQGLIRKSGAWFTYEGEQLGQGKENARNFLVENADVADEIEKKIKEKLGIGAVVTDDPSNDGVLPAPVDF

[1] = Luminescence Cell-Based Dose Response HTS to Identify Inhibitors of 5'UTR Stem-Loop Driven Prion Protein mRNA Translation in H4 Neuroglioblastoma Cells. [Related pubchem assays: 1827 (Project Summary), 1813 (Primary HTS)]; assay type: functional
[2] = molecular target: T2, Apoptotic protease-activating factor 1 (Homo sapiens, UniProt O14727); assay type: functional
T2 sequence (O14727 whole entry): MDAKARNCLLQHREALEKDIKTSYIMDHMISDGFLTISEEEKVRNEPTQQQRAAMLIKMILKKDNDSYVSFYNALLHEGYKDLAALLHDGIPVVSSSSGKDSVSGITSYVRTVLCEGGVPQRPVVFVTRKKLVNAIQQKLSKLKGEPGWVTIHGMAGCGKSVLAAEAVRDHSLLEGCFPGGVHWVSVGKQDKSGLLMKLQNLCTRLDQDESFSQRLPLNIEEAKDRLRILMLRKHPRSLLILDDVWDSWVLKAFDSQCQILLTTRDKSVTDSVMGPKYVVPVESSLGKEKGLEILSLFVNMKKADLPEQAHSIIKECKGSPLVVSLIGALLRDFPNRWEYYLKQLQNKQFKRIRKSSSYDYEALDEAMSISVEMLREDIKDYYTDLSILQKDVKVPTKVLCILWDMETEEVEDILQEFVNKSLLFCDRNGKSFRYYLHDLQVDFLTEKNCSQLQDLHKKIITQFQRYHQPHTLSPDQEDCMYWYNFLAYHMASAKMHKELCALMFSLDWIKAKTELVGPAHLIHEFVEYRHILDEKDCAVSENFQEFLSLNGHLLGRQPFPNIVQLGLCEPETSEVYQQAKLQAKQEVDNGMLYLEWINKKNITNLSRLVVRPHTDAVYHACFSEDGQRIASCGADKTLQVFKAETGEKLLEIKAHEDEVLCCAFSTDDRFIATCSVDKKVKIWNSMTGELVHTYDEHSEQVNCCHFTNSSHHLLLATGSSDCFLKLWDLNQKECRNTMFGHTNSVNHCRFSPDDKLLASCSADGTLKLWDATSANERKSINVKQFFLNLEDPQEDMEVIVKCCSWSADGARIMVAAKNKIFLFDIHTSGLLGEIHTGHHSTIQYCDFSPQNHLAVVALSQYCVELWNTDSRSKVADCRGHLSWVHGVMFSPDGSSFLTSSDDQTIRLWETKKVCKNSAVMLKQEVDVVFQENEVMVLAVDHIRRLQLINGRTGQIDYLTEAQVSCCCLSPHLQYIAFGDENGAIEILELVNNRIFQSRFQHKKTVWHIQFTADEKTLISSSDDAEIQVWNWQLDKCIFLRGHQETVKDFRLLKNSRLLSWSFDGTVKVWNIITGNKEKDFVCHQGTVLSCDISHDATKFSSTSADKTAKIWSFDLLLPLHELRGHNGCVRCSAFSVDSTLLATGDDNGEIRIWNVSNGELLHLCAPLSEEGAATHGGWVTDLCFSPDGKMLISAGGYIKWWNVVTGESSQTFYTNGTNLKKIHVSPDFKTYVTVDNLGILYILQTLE

[3] = system: Streptococcus sp. 'group A'; assay: Streptococcus pyogenes SK(-)GAS viability under kanamycin – luminescence, BacTiterGlo, confirmation, counter-screen for streptokinase expression inhibitor project, dose response (AID 1900); assay type: functional, organism-based
[4] = NIH3T3 cell viability loss – ATP luminescence, mouse fibroblasts, counter-screen, dose response (AID 2010); assay type: functional, cell-based;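 note: cells exposed to compound for about 90 hours before reading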
[5] = molecular target: T3, Zinc finger protein mex-5 (Caenorhabditis elegans, UniProt Q9XUB2); assay: potency of MEX-5 RNA-binding blockers – biochemical, C. elegans, fluorescence polarization, dose response (AID 1960)
T3 sequence (Q9XUB2 whole entry): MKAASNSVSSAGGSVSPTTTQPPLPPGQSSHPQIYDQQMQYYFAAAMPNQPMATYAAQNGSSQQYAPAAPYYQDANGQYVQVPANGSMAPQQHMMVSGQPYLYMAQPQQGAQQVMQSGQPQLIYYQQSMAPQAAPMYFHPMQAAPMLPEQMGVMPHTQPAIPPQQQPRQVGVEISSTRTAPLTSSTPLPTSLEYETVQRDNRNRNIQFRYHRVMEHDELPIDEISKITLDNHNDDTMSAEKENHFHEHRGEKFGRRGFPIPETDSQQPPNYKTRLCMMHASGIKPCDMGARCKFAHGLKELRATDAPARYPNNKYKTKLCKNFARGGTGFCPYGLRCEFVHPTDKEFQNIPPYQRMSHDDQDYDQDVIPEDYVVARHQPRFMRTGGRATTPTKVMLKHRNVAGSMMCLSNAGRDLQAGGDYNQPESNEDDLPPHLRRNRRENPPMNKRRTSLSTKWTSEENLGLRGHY

[6] = molecular target: Induced myeloid leukemia cell differentiation protein Mcl-1 (Homo sapiens, UniProt Q07820); assay type: functional
Chain of Induced myeloid leukemia cell differentiation protein Mcl-1 (Q07820 whole entry): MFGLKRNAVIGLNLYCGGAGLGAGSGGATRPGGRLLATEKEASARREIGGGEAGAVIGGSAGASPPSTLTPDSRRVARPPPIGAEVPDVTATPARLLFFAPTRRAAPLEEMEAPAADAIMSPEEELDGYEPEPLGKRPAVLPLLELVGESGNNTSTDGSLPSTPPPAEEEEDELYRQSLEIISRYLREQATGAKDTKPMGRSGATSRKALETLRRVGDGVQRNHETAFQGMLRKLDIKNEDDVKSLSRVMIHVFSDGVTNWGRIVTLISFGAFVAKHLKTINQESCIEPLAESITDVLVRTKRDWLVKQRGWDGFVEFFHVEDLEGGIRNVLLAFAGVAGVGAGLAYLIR

Row | Compound | EC50 (Protein RecA) | EC50 [1] | IC50 [2] | EC50 [3] | EC50 [4] | EC50 [5] | IC50 [6]
1 | Cc1ccc(NC2=C/C(=N\S(=O)(=O)c3cccs3)c3ccccc3C2=O)c(C)c1 | 0.185 µM (active) | 8.59 µM (inconclusive) | 0.411 µM (active) | 2.99 µM (active) | < 6 µM (inconclusive) |  | 
2 | COc1ccc(/C=N/NC(=O)c2nn(-c3ccccc3)c(=O)c3c(N)scc23)cc1 | 0.22 µM (active) |  | 15.3 µM (active) |  |  |  | 
3 | Oc1ccc(-c2cn3c(n2)SCC3)cc1O |  |  |  |  |  | 1.77 µM (active) | 2.26 µM (active)
4 | CC(=O)N(C1=C(Cl)C(=O)c2ccccc2C1=O)C1CCCCC1 | 1.18 µM (active) | 20.5 µM (active) | 3.12 µM (active) | 6.92 µM (active) | 3.26 µM (active) | 8.18 µM (active) | 14.5 µM (active)
